Measurements as given in ChEMBL document CHEMBL3745631, “Discovery of highly potent and selective Bruton's tyrosine kinase inhibitors: Pyridazinone analogs with improved metabolic stability” (Bioorg Med Chem Lett, 2016).
pEC50, pIC50: −log10 of the molar value.

Key:
[1] = target: Tyrosine-protein kinase BTK (Mus musculus, UniProt P35991); experiment: Inhibition of BTK in Balb/c mouse B cells assessed as inhibition of anti-IgM-stimulated CD86 expression by flow cytometry; assay type: cell-based
[2] = Inhibition of anti-IgM-stimulated human B cell proliferation
[3] = Oral bioavailability in dog at 5 mg/kg by LC-MS/MS analysis; assay type: ADME, organism-based, Canis lupus familiaris; conditions: in vivo
[4] = target: Tyrosine-protein kinase Tec (Homo sapiens) (UniProt P42680); experiment: Inhibition of TEC (unknown origin) at 1 uM
[5] = target: Tyrosine-protein kinase Fgr (Homo sapiens, UniProt P09769); experiment: Inhibition of FGR (unknown origin) at 1 uM
[6] = target: Serine/threonine-protein kinase PAK 4 (Homo sapiens) (UniProt O96013); experiment: Inhibition of PAK4 (unknown origin) at 1 uM
[7] = target: Serine/threonine-protein kinase PLK1 (Homo sapiens) (UniProt P53350); experiment: Inhibition of PLK1 (unknown origin) at 1 uM
[8] = target: Maternal embryonic leucine zipper kinase (Homo sapiens, UniProt Q14680); experiment: Inhibition of MELK (unknown origin)
[9] = target: Ephrin type-B receptor 1 (Homo sapiens) (UniProt P54762); experiment: Inhibition of EphB1 (unknown origin) at 1 uM
[10] = target: Mitogen-activated protein kinase kinase kinase kinase 4 (Homo sapiens) (UniProt O95819); experiment: Inhibition of MAP4K4 (unknown origin) at 1 uM
[11] = target: Muscle, skeletal receptor tyrosine-protein kinase (Homo sapiens) (UniProt O15146); experiment: Inhibition of MusK (unknown origin) at 1 uM
[12] = target: MAP kinase-interacting serine/threonine-protein kinase 1 (Homo sapiens) (UniProt Q9BUB5); experiment: Inhibition of MKNK1 (unknown origin) at 1 uM
[13] = target: Ribosomal protein S6 kinase beta-1 (Homo sapiens) (UniProt P23443); experiment: Inhibition of p70S6K (unknown origin) at 1 uM
[14] = target: Fibroblast growth factor receptor 1 (Homo sapiens) (UniProt P11362); experiment: Inhibition of FGFR1 (unknown origin) at 1 uM
[15] = target: Misshapen-like kinase 1 (Homo sapiens) (UniProt Q8N4C8); experiment: Inhibition of Mink1 (unknown origin) at 1 uM
[16] = target: Mitogen-activated protein kinase kinase kinase kinase 5 (Homo sapiens) (UniProt Q9Y4K4); experiment: Inhibition of KHS1 (unknown origin) at 1 uM
[17] = target: Eukaryotic elongation factor 2 kinase (Homo sapiens) (UniProt O00418); experiment: Inhibition of eEF-2K (unknown origin) at 1 uM
[18] = target: Receptor tyrosine-protein kinase erbB-4 (Homo sapiens) (UniProt Q15303); experiment: Inhibition of ErbB4 (unknown origin) at 1 uM
[19] = target: Ephrin type-B receptor 3 (Homo sapiens) (UniProt P54753); experiment: Inhibition of EphB3 (unknown origin) at 1 uM
[20] = target: Cyclin-dependent kinase 5/CDK5 activator 1 (Homo sapiens) (UniProt Q00535+Q15078); experiment: Inhibition of CDK5/p25 (unknown origin) at 1 uM; assay type: protein-complex assay
[21] = target: Protein kinase C beta type (Homo sapiens) (UniProt P05771); experiment: Inhibition of PKC beta1 (unknown origin) at 1 uM
[22] = target: Death-associated protein kinase 1 (Homo sapiens) (UniProt P53355); experiment: Inhibition of DAPK1 (unknown origin) at 1 uM
[23] = target: Aurora kinase B (Homo sapiens) (UniProt Q96GD4); experiment: Inhibition of AuroraB (unknown origin) at 1 uM
[24] = target: Ribosomal protein S6 kinase alpha-1 (Homo sapiens) (UniProt Q15418); experiment: Inhibition of Rsk1 (unknown origin) at 1 uM
[25] = target: Dual specificity tyrosine-phosphorylation-regulated kinase 4 (Homo sapiens) (UniProt Q9NR20); experiment: Inhibition of DYRK4 (unknown origin) at 1 uM
[26] = target: Activin receptor type-1 (Homo sapiens) (UniProt Q04771); experiment: Inhibition of ALK2 (unknown origin) at 1 uM
[27] = target: Activated CDC42 kinase 1 (Homo sapiens) (UniProt Q07912); experiment: Inhibition of TNK2 (unknown origin) at 1 uM
[28] = target: Glycogen synthase kinase-3 beta (Homo sapiens) (UniProt P49841); experiment: Inhibition of GSK3 beta (unknown origin) at 1 uM
[29] = target: Tyrosine-protein kinase ZAP-70 (Homo sapiens) (UniProt P43403); experiment: Inhibition of ZAP-70 (unknown origin) at 1 uM
[30] = target: Ephrin type-A receptor 2 (Homo sapiens) (UniProt P29317); experiment: Inhibition of EphA2 (unknown origin) at 1 uM
[31] = target: Serine/threonine-protein kinase TBK1 (Homo sapiens) (UniProt Q9UHD2); experiment: Inhibition of TBK1 (unknown origin) at 1 uM
[32] = target: Angiopoietin-1 receptor (Homo sapiens) (UniProt Q02763); experiment: Inhibition of Tie2 (unknown origin) at 1 uM
[33] = target: Cyclin-dependent kinase 1/cyclin B1 (Homo sapiens) (UniProt P06493+P14635); experiment: Inhibition of CDK1/cyclinB (unknown origin) at 1 uM; assay type: protein-complex assay
[34] = target: Tyrosine-protein kinase Fes/Fps (Homo sapiens) (UniProt P07332); experiment: Inhibition of Fes (unknown origin) at 1 uM
[35] = target: Insulin-like growth factor 1 receptor (Homo sapiens) (UniProt P08069); experiment: Inhibition of IGF1R (unknown origin) at 1 uM
[36] = target: Serine/threonine-protein kinase Chk1 (Homo sapiens) (UniProt O14757); experiment: Inhibition of CHK1 (unknown origin) at 1 uM
[37] = target: Dual specificity tyrosine-phosphorylation-regulated kinase 1A (Homo sapiens) (UniProt Q13627); experiment: Inhibition of DYRK1A (unknown origin) at 1 uM
[38] = target: Serine/threonine-protein kinase pim-1 (Homo sapiens) (UniProt P11309); experiment: Inhibition of PIM1 (unknown origin) at 1 uM
[39] = target: Serine/threonine-protein kinase 4 (Homo sapiens) (UniProt Q13043); experiment: Inhibition of MST1 (unknown origin) at 1 uM
[40] = target: Activin receptor type-1B (Homo sapiens) (UniProt P36896); experiment: Inhibition of ACVR1B (unknown origin) at 1 uM
[41] = target: Serine/threonine-protein kinase NLK (Homo sapiens) (UniProt Q9UBE8); experiment: Inhibition of NLK (unknown origin) at 1 uM
[42] = target: LIM domain kinase 1 (Homo sapiens) (UniProt P53667); experiment: Inhibition of LIMK1 (unknown origin) at 1 uM
[43] = target: Protein-tyrosine kinase 6 (Homo sapiens) (UniProt Q13882); experiment: Inhibition of Brk (unknown origin) at 1 uM
[44] = target: STE20-like serine/threonine-protein kinase (SLK) (Homo sapiens) (UniProt Q9H2G2); experiment: Inhibition of SLK (unknown origin) at 1 uM

Chain of Serine/threonine-protein kinase Chk1 (Homo sapiens) (O14757 whole entry): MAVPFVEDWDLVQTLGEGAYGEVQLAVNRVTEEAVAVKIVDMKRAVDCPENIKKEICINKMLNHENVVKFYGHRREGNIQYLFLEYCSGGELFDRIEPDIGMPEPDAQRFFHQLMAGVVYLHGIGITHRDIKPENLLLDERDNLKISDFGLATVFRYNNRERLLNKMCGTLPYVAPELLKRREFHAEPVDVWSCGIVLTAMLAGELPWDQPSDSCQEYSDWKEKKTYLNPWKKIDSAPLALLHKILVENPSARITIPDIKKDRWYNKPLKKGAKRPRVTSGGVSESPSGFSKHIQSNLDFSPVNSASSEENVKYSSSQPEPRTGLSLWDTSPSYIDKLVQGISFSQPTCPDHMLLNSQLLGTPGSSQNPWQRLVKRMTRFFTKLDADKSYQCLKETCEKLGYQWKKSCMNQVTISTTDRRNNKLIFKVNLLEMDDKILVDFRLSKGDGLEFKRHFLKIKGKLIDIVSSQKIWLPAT
Chain of Serine/threonine-protein kinase PLK1 (Homo sapiens) (P53350 whole entry): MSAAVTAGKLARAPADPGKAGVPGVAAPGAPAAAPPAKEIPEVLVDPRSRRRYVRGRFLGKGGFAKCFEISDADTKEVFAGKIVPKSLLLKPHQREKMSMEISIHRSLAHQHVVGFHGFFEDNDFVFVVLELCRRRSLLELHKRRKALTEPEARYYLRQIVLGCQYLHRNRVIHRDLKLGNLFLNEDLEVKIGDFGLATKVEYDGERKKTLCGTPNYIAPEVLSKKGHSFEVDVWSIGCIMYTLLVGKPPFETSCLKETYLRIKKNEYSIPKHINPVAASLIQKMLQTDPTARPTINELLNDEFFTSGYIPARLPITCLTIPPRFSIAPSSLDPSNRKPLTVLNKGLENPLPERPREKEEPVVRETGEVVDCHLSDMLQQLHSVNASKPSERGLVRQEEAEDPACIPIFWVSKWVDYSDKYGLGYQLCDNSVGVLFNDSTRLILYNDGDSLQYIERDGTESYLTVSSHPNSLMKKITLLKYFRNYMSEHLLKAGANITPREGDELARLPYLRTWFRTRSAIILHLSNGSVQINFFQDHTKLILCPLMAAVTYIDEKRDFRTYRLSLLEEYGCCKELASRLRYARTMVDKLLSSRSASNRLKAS
Chain of Ephrin type-A receptor 2 (Homo sapiens) (P29317 whole entry): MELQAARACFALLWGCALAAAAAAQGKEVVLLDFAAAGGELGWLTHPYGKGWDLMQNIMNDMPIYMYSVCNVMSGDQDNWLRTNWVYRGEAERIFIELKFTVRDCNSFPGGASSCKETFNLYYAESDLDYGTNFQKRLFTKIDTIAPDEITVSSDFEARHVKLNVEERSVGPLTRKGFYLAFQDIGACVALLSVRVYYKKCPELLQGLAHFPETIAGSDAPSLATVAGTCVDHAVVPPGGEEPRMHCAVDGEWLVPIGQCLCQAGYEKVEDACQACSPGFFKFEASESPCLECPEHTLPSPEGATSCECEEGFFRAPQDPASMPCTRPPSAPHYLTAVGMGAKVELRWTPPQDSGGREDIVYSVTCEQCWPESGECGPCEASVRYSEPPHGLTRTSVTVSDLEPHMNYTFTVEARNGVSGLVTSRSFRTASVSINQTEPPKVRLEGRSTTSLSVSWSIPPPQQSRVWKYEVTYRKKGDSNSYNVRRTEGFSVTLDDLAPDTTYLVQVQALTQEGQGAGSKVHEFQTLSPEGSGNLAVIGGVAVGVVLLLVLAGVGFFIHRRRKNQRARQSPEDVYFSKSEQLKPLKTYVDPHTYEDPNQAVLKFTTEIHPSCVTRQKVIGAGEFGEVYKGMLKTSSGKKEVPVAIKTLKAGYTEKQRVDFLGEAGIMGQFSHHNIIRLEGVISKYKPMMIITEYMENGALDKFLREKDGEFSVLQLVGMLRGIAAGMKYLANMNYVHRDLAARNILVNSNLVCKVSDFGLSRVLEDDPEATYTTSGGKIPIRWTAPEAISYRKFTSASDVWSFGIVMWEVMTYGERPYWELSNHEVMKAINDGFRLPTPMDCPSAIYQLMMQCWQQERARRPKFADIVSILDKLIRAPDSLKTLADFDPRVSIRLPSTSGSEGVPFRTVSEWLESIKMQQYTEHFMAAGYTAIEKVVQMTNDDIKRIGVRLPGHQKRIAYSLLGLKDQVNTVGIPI
Chain of Mitogen-activated protein kinase kinase kinase kinase 4 (Homo sapiens) (O95819 2-1239 limits assumed): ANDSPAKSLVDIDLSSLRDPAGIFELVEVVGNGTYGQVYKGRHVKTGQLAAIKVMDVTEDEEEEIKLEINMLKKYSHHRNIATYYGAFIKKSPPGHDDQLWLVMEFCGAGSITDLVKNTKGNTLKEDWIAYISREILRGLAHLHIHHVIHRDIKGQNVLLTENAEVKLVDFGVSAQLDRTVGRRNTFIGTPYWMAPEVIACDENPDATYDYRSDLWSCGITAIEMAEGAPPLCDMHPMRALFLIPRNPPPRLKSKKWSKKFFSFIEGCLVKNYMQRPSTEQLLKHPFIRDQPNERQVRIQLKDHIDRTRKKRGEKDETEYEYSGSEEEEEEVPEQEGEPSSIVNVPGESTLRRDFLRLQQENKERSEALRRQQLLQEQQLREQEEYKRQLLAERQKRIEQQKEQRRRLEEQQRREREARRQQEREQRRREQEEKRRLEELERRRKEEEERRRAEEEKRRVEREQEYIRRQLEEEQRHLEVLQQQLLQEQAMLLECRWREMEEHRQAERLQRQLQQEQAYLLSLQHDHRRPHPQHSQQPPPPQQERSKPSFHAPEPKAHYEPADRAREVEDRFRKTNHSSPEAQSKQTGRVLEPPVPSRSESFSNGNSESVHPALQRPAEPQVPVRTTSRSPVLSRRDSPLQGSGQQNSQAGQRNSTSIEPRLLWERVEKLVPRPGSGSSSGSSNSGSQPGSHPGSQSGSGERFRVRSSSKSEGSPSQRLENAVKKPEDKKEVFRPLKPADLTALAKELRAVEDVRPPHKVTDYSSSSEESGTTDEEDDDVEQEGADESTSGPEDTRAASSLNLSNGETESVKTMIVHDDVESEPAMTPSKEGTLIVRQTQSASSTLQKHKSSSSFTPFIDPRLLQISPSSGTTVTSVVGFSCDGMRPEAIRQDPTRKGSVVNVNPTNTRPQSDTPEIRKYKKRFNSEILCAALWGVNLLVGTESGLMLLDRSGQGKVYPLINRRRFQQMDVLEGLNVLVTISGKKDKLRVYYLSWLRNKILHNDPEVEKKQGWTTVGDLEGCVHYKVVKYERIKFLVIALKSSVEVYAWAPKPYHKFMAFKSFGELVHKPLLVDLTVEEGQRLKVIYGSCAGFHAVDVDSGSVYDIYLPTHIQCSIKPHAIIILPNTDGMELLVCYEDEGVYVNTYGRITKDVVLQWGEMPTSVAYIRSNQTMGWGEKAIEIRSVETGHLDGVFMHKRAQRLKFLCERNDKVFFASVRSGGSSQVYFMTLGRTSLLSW
Chain of Protein kinase C beta type (Homo sapiens) (P05771 2-671 limits assumed): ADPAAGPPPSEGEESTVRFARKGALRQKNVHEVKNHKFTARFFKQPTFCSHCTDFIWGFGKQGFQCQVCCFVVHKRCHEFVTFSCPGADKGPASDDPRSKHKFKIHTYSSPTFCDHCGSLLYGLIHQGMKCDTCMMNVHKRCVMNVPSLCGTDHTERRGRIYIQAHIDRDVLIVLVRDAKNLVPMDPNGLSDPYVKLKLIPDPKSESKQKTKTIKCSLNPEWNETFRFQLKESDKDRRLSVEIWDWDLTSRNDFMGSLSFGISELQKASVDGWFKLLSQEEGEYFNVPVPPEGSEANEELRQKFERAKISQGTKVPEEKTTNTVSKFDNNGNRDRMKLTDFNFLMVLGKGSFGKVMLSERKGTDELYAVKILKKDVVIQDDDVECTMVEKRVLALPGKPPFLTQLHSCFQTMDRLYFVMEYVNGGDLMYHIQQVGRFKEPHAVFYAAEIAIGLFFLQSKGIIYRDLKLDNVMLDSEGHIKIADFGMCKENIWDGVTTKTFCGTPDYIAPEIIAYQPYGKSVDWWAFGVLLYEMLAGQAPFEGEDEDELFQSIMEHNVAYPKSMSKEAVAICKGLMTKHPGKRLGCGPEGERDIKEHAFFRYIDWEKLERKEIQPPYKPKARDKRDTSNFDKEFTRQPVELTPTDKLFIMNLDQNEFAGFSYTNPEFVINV
Chain of Cyclin-dependent kinase 5/CDK5 activator 1 (Homo sapiens) (Q00535 whole entry): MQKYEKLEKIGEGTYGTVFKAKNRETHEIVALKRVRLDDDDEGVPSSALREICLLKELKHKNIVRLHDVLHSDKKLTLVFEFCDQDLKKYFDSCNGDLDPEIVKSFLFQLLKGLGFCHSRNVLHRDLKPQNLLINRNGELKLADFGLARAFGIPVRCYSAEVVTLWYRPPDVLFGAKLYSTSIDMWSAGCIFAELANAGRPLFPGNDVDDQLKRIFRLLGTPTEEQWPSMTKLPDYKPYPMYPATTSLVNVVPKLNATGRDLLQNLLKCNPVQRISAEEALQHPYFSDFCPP
Chain of Cyclin-dependent kinase 5/CDK5 activator 1 (Homo sapiens) (Q15078 99-307 partner limits assumed): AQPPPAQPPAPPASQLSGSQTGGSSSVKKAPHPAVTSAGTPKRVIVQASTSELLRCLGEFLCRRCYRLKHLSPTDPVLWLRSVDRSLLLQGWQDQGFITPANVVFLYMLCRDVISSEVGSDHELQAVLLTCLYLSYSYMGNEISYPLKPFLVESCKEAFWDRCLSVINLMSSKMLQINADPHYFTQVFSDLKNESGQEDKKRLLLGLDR
Chain of Protein-tyrosine kinase 6 (Homo sapiens) (Q13882 whole entry, looked up): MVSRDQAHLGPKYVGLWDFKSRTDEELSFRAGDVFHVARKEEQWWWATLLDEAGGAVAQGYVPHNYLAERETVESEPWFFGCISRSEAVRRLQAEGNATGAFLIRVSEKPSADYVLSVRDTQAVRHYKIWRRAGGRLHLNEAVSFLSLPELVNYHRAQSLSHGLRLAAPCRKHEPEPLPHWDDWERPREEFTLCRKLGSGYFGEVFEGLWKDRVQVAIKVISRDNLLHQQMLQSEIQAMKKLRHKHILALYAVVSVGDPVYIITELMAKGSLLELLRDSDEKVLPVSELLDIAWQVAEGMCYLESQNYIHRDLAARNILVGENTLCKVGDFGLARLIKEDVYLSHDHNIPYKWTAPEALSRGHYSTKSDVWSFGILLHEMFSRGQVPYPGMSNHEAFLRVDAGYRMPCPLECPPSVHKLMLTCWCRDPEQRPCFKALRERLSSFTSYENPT

Structure (SMILES): Cc1c(-c2cc(Nc3cc4n(n3)CCN(C)C4)c(=O)[nH]n2)ccc(F)c1NC(=O)c1cc2ccccc2s1
- pIC50 [1]: 7.04
- pEC50 [2]: 8.22
- bioavailability [3]: 65%
- inhibition [4]: 87.9%
- inhibition [5]: 69.8%
- inhibition [6]: 6.2%
- inhibition [7]: 6%
- pIC50 [8]: < 5.00
- inhibition [9]: 3.2%
- inhibition [10]: 3%
- inhibition [11]: 1.4%
- inhibition [12]: -2.8%
- inhibition [13]: -2.8%
- inhibition [14]: -3.1%
- inhibition [15]: 17.8%
- inhibition [16]: 17.3%
- inhibition [17]: 3%
- inhibition [18]: 2.7%
- inhibition [19]: 2.5%
- inhibition [20]: 2.4%
- inhibition [21]: 0.2%
- inhibition [22]: 0.1%
- inhibition [23]: -0.4%
- inhibition [24]: -0.4%
- inhibition [25]: -1.1%
- inhibition [26]: -2.1%
- inhibition [27]: 15.9%
- inhibition [28]: 11.1%
- inhibition [29]: 8.1%
- inhibition [30]: 8%
- inhibition [31]: 7.5%
- inhibition [32]: 7.4%
- inhibition [33]: 7.3%
- inhibition [34]: 7.2%
- inhibition [35]: 6.4%
- inhibition [36]: 4.8%
- inhibition [37]: 4.8%
- inhibition [38]: 4.5%
- inhibition [39]: -2.6%
- inhibition [40]: -3.9%
- inhibition [41]: -4.8%
- inhibition [42]: -5.5%
- inhibition [43]: 3.5%
- inhibition [44]: -3%
